Values quoted from earlier work as cited in patent publication EP4778926A1, “DEUTERATED DIARYL GLYCOLURIL TETRAMER COMPOUND AND USE THEREOF” (Shanghai Institute of Organic Chemistry, Chinese Academy of …, priority 2023, dated 2025).
Where two headings read alike, the source gives them in different places.

Columns and labels:
[1] = for TOF→0.9 time, Average time: rats, Rocuronium bromide (3.5 mg/kg), from literature (Liu et al.)
[2] = for TOF→0.9 time, Average value: rats, Vecuronium Bromide (0.7 mg/kg), from literature (Liu et al.)
[3] = rats; Cisatracurium Besylate (0.6 mg/kg); neostigmine 0.24 mg/kg; from literature (Liu et al.)
[4] = rats; pancuronium bromide (0.5 mg/kg); neostigmine 0.24 mg/kg; from literature (Liu et al.)

| SMILES | TOF→0.9 time, Average time ([1]; Sugammadex Sodium 25 mg/kg) [s] | time that TOF recovered to 0.9 ([1]; rocuronium bromide, sugammadex sodium at the same dose (25 mg/kg), literature data) [s] | TOF→0.9 time, Average value ([2]; Sugammadex Sodium 25 mg/kg) [s] | time that TOF recovered to 0.9 ([2]; vecuronium bromide, sugammadex sodium at the same dose (25 mg/kg), literature data) [s] | TOF→0.9 time, Average time ([1]; neostigmine 0.24 mg/kg) [s] | TOF→0.9 time, Average time [3] [s] | TOF→0.9 time, Average value ([2]; neostigmine 0.24 mg/kg) [s] | TOF→0.9 time, Average value [4] [s] |
| --- | --- | --- | --- | --- | --- | --- | --- | --- |
| O=C([O-])CCSC[C@H]1O[C@@H]2O[C@H]3[C@H](O)[C@@H](O)[C@@H](O[C@H]4[C@H](O)[C@@H](O)[C@@H](O[C@H]5[C@H](O)[C@@H](O)[C@@H](O[C@H]6[C@H](O)[C@@H](O)[C@@H](O[C@H]7[C@H](O)[C@@H](O)[C@@H](O[C@H]8[C@H](O)[C@@H](O)[C@@H](O[C@H]9[C@H](O)C(O)[C@@H](O[C@H]1[C@H](O)[C@H]2O)O[C@@H]9CSCCC(=O)[O-])O[C@@H]8CSCCC(=O)[O-])O[C@@H]7CSCCC(=O)[O-])O[C@@H]6CSCCC(=O)[O-])O[C@@H]5CSCCC(=O)[O-])O[C@@H]4CSCCC(=O)[O-])O[C@@H]3CSCCC(=O)[O-].[Na+].[Na+].[Na+].[Na+].[Na+].[Na+].[Na+].[Na+] (some centres unmarked) [Sugammadex Sodium] | 52 | 52 | 18 | 18 |  |  |  |  |
| CN(C)C(=O)Oc1cccc([N+](C)(C)C)c1 [neostigmine] |  |  |  |  | 363 | 210 | 315 | 1371 |
